The values that follow come from US20250353891A1 (MEDIMMUNE LIMITED, priority 2022, published 2025).

Each structure is given as a SMILES string. Starred links: 1 amine or outer side, 2 acyl side, 3 side chain; linkers in the order of their positions; H or OH if unused. Non-standard residues stand in square brackets, D forms with d. Residues, ends and D or L forms follow the SMILES beside them. Groups on a side chain read outwards from the residue. *: point of attachment. C18 diacid = O=C(O)CCCCCCCCCCCCCCCCC(=O)*; γGlu = O=C(O)[C@H](CCC(=O)[*:2])N[*:1]; αMeF = C[C@](N)(Cc1ccccc1)C(=O)O; AEEA = NCCOCCOCC(=O)O; Aib = CC(C)(N)C(=O)O

Assay [1] deals with human glucagon receptor (hGCGR) (Homo sapiens, UniProt P47871). Put plainly: cAMP production (HTRF) in CHO cells expressing hGCGR. Type of assay: cell-based. More on the design: expressed in transfected cells. The conditions noted are these: Table 6, peptides modified at position 17; cAMP in CHO hGCGR cells; geometric mean; read-out: hGluc-R EC50. The procedure, abridged:
(§1)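 Cells were resuspended in assay buffer at batch-optimized density, typically 1×10^5 cells/mL for hGLP-1R and 2×10^5 cells/mL for hGCGR. After 30 min incubation at room temperature with compound, cAMP was measured by two-step HTRF. EC50 values came from 4-parameter logistic fits of % Delta F.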
In general terms: Cyclic AMP is a second messenger, typically raised through Gs and lowered through Gi signalling.

The target of assay [2] is human GLP-1 receptor (hGLP-1R) (Homo sapiens, UniProt P43220). Put plainly: cAMP production (HTRF) in CHO cells expressing hGLP-1R. The conditions noted are these: for EC50: Table 6, peptides modified at position 17, cAMP in CHO hGLP-1R cells, geometric mean, read-out: hGLP-1R EC50; for % Relative Potency Ratio: Table 6, % GLP-1R activity relative to GLP-1 / % GlucR activity relative to glucagon. The assay is classed as cell-based. On the set-up: expressed in transfected cells. The procedure, abridged: as §1
Sequence of human GLP-1 receptor (hGLP-1R) (P43220 24-463): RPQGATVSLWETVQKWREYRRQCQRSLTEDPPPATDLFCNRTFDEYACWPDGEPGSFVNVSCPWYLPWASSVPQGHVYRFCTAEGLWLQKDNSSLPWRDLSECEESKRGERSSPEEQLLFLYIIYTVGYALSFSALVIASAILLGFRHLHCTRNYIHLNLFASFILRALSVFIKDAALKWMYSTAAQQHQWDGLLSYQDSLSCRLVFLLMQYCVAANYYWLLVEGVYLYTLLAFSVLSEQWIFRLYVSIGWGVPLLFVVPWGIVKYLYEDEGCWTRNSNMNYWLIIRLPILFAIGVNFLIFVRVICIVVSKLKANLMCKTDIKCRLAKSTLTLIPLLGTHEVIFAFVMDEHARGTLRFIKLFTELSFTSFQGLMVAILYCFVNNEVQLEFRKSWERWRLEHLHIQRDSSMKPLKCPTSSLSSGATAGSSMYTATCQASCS

Sequence of human glucagon receptor (hGCGR) (P47871 26-477): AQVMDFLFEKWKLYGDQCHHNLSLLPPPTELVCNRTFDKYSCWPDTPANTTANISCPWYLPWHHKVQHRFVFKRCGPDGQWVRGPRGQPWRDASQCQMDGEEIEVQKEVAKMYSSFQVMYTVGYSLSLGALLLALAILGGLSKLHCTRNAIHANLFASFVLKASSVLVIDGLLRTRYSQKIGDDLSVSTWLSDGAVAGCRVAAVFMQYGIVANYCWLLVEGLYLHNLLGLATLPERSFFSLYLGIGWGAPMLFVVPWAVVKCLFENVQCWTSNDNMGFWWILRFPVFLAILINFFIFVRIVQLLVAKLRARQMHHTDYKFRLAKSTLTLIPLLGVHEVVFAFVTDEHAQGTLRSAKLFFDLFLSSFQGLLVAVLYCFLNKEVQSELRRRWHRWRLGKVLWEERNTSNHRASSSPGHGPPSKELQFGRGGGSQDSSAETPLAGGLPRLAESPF

In general, EC50 refers to the concentration at which the effect is half-maximal. Turning to `CC(C)C[C@H](NC(=O)[C@H](CC(C)C)NC(=O)[C@H](Cc1c[nH]c2ccccc12)NC(=O)[C@H](CCCNC(=N)N)NC(=O)[C@@H](NC(=O)[C@H](Cc1ccccc1)NC(=O)[C@H](CC(=O)O)NC(=O)[C@H](CCC(N)=O)NC(=O)[C@H](C)NC(=O)[C@H](CCCNC(=N)N)NC(=O)[C@H](CCCCNC(=O)COCCOCCNC(=O)COCCOCCNC(=O)CCCCCCCCCCCCCCCCC(=O)O)NC(=O)[C@H](CCCCN)NC(=O)[C@H](CC(=O)O)NC(=O)[C@H](CC(C)C)NC(=O)[C@](C)(Cc1ccccc1)NC(=O)[C@H](CCCCN)NC(=O)[C@H](CO)NC(=O)[C@@H](NC(=O)[C@H](CC(=O)O)NC(=O)[C@H](CO)NC(=O)[C@@H](NC(=O)[C@H](Cc1ccccc1)NC(=O)[C@@H](NC(=O)CNC(=O)[C@H](CCC(N)=O)NC(=O)C(C)(C)NC(=O)[C@@H](N)Cc1c[nH]cn1)[C@@H](C)O)[C@@H](C)O)C(C)C)C(C)C)C(=O)N[C@@H](C)C(=O)NC(C)(C)C(=O)N[C@@H](CCCCN)C(=O)O` [Peptide 184] (H-H[Aib]QGTFTSDVSK[αMeF]LDKK([AEEA-AEEA-C18 diacid])RAQDFVRWLLA[Aib]K-OH; N-terminus assumed), the EC50 in assay [1] is 0.0296 nM. Also, in assay [2], the EC50 worked out at 0.022 nM and the “% Relative Potency Ratio” value stood at 2.7.

Take `CC(C)C[C@H](NC(=O)[C@H](Cc1c[nH]c2ccccc12)NC(=O)[C@H](CCCNC(=N)N)NC(=O)[C@@H](NC(=O)[C@H](Cc1ccccc1)NC(=O)[C@H](CC(=O)O)NC(=O)[C@H](CCC(N)=O)NC(=O)[C@H](C)NC(=O)[C@H](CCCNC(=N)N)NC(=O)[C@H](CCCCNC(=O)COCCOCCNC(=O)COCCOCCNC(=O)CC[C@H](NC(=O)CCCCCCCCCCCCCCCCC(=O)O)C(=O)O)NC(=O)[C@@H](NC(=O)[C@H](CC(=O)O)NC(=O)[C@H](CC(C)C)NC(=O)[C@](C)(Cc1ccccc1)NC(=O)[C@H](CCCCN)NC(=O)[C@H](CO)NC(=O)[C@@H](NC(=O)[C@H](CC(=O)O)NC(=O)[C@H](CO)NC(=O)[C@@H](NC(=O)[C@H](Cc1ccccc1)NC(=O)[C@@H](NC(=O)CNC(=O)[C@H](CCC(N)=O)NC(=O)C(C)(C)NC(=O)[C@@H](N)Cc1c[nH]cn1)[C@@H](C)O)[C@@H](C)O)C(C)C)[C@@H](C)O)C(C)C)C(=O)N[C@@H](CC(C)C)C(=O)N[C@@H](CCC(=O)O)C(=O)NC(C)(C)C(=O)NCC(N)=O` [Peptide 185] (H-H[Aib]QGTFTSDVSK[αMeF]LDTK([AEEA-AEEA-γGlu-C18 diacid])RAQDFVRWLLE[Aib]G-NH2; N-terminus assumed): in assay [1], the EC50 came to 0.23 nM. Moreover, in assay [2], the EC50 stood at 0.0441 nM and the “% Relative Potency Ratio” value is listed as 10.3.

For `CC(C)C[C@H](NC(=O)[C@H](CC(C)C)NC(=O)[C@H](Cc1c[nH]c2ccccc12)NC(=O)[C@H](CCCNC(=N)N)NC(=O)[C@@H](NC(=O)[C@H](Cc1ccccc1)NC(=O)[C@H](CC(=O)O)NC(=O)[C@H](CCC(N)=O)NC(=O)[C@H](C)NC(=O)[C@H](CCCNC(=N)N)NC(=O)[C@H](CCCCNC(=O)COCCOCCNC(=O)COCCOCCNC(=O)CC[C@H](NC(=O)CCCCCCCCCCCCCCCCC(=O)O)C(=O)O)NC(=O)[C@@H](NC(=O)[C@H](CC(=O)O)NC(=O)[C@H](CC(C)C)NC(=O)[C@](C)(Cc1ccccc1)NC(=O)[C@H](CCCCN)NC(=O)[C@H](CO)NC(=O)[C@@H](NC(=O)[C@H](CC(=O)O)NC(=O)[C@H](CO)NC(=O)[C@@H](NC(=O)[C@H](Cc1ccccc1)NC(=O)[C@@H](NC(=O)CNC(=O)[C@H](CCC(N)=O)NC(=O)C(C)(C)NC(=O)[C@@H](N)Cc1c[nH]cn1)[C@@H](C)O)[C@@H](C)O)C(C)C)[C@@H](C)O)C(C)C)C(=O)N[C@@H](CCC(=O)O)C(=O)N[C@@H](C)C(=O)NCC(=O)O` [Peptide 186] (H-H[Aib]QGTFTSDVSK[αMeF]LDTK([AEEA-AEEA-γGlu-C18 diacid])RAQDFVRWLLEAG-OH; N-terminus assumed), the EC50 in assay [1] was 0.101 nM. In addition, in assay [2], the EC50 is 0.0449 nM and the “% Relative Potency Ratio” value turned out to be 4.4.

`CC(C)C[C@H](NC(=O)[C@H](Cc1c[nH]c2ccccc12)NC(=O)[C@H](CCCNC(=N)N)NC(=O)[C@@H](NC(=O)[C@H](Cc1ccccc1)NC(=O)[C@H](CC(=O)O)NC(=O)[C@H](CCCNC(=N)N)NC(=O)[C@H](C)NC(=O)[C@H](CCCNC(=N)N)NC(=O)[C@H](CCCCNC(=O)COCCOCCNC(=O)COCCOCCNC(=O)CC[C@H](NC(=O)CCCCCCCCCCCCCCCCC(=O)O)C(=O)O)NC(=O)[C@@H](NC(=O)[C@H](CC(=O)O)NC(=O)[C@H](CC(C)C)NC(=O)[C@](C)(Cc1ccccc1)NC(=O)[C@H](CCCCN)NC(=O)[C@H](CO)NC(=O)[C@@H](NC(=O)[C@H](CC(=O)O)NC(=O)[C@H](CO)NC(=O)[C@@H](NC(=O)[C@H](Cc1ccccc1)NC(=O)[C@@H](NC(=O)CNC(=O)[C@H](CCC(N)=O)NC(=O)C(C)(C)NC(=O)[C@@H](N)Cc1c[nH]cn1)[C@@H](C)O)[C@@H](C)O)C(C)C)[C@@H](C)O)C(C)C)C(=O)N[C@@H](CC(C)C)C(=O)N[C@@H](CCC(=O)O)C(=O)NC(C)(C)C(=O)NCC(=O)O` [Peptide 189] (H-H[Aib]QGTFTSDVSK[αMeF]LDTK([AEEA-AEEA-γGlu-C18 diacid])RARDFVRWLLE[Aib]G-OH; N-terminus assumed): the half-maximal effective concentration (EC50) in assay [1] was 0.0443 nM; in assay [2] it was 0.0113 nM. For the same compound, the “% Relative Potency Ratio” value in assay [2] was found to be 7.7.

Consider `CC(C)C[C@H](NC(=O)[C@H](Cc1c[nH]c2ccccc12)NC(=O)[C@H](CCCNC(=N)N)NC(=O)[C@@H](NC(=O)[C@H](Cc1ccccc1)NC(=O)[C@H](CC(=O)O)NC(=O)[C@H](CCC(N)=O)NC(=O)[C@H](C)NC(=O)[C@H](CCCNC(=N)N)NC(=O)[C@H](CCCCNC(=O)COCCOCCNC(=O)COCCOCCNC(=O)CC[C@H](NC(=O)CCCCCCCCCCCCCCCCC(=O)O)C(=O)O)NC(=O)[C@@H](NC(=O)[C@H](CC(=O)O)NC(=O)[C@H](CC(C)C)NC(=O)[C@](C)(Cc1ccccc1)NC(=O)[C@H](CCCCN)NC(=O)[C@H](CO)NC(=O)[C@@H](NC(=O)[C@H](CC(=O)O)NC(=O)[C@H](CO)NC(=O)[C@@H](NC(=O)[C@H](Cc1ccccc1)NC(=O)[C@@H](NC(=O)CNC(=O)[C@H](CCC(N)=O)NC(=O)C(C)(C)NC(=O)[C@@H](N)Cc1c[nH]cn1)[C@@H](C)O)[C@@H](C)O)C(C)C)[C@@H](C)O)C(C)C)C(=O)N[C@@H](CC(C)C)C(=O)NC(C)(C)C(=O)N[C@@H](CCC(=O)O)C(=O)O` [Peptide 192] (H-H[Aib]QGTFTSDVSK[αMeF]LDTK([AEEA-AEEA-γGlu-C18 diacid])RAQDFVRWLL[Aib]E-OH; N-terminus assumed), for which the EC50 in assay [1] came out at 0.227 nM. In addition, in assay [2], the EC50 amounted to 0.108 nM and the “% Relative Potency Ratio” value is given as 4.2.

Take `CC[C@H](C)[C@H](NC(=O)[C@H](CC(C)C)NC(=O)[C@H](Cc1c[nH]c2ccccc12)NC(=O)[C@H](CCCNC(=N)N)NC(=O)[C@@H](NC(=O)[C@H](Cc1ccccc1)NC(=O)[C@H](CC(=O)O)NC(=O)[C@H](CCC(N)=O)NC(=O)[C@H](C)NC(=O)[C@H](CCCNC(=N)N)NC(=O)[C@H](CCCCNC(=O)COCCOCCNC(=O)COCCOCCNC(=O)CC[C@H](NC(=O)CCCCCCCCCCCCCCCCC(=O)O)C(=O)O)NC(=O)[C@H](CO)NC(=O)[C@H](CC(=O)O)NC(=O)[C@H](CC(C)C)NC(=O)[C@](C)(Cc1ccccc1)NC(=O)[C@H](CCCCN)NC(=O)[C@H](CO)NC(=O)[C@@H](NC(=O)[C@H](CC(=O)O)NC(=O)[C@H](CO)NC(=O)[C@@H](NC(=O)[C@H](Cc1ccccc1)NC(=O)[C@@H](NC(=O)CNC(=O)[C@H](CCC(N)=O)NC(=O)C(C)(C)NC(=O)[C@@H](N)Cc1c[nH]cn1)[C@@H](C)O)[C@@H](C)O)C(C)C)C(C)C)C(=O)NC(C)(C)C(=O)N[C@@H](CCC(=O)O)C(=O)O` [Peptide 196] (H-H[Aib]QGTFTSDVSK[αMeF]LDSK([AEEA-AEEA-γGlu-C18 diacid])RAQDFVRWLI[Aib]E-OH; N-terminus assumed): the EC50 in assay [1] turned out to be 0.24 nM; in assay [2], 0.027 nM. The “% Relative Potency Ratio” value in assay [2] came out at 17.6.

`CC(C)C[C@H](NC(=O)[C@H](Cc1c[nH]c2ccccc12)NC(=O)[C@H](CCCNC(=N)N)NC(=O)[C@@H](NC(=O)[C@H](Cc1ccccc1)NC(=O)[C@H](CC(=O)O)NC(=O)[C@H](CCCNC(=N)N)NC(=O)[C@H](C)NC(=O)[C@H](CCCNC(=N)N)NC(=O)[C@H](CCCCNC(=O)COCCOCCNC(=O)COCCOCCNC(=O)CC[C@H](NC(=O)CCCCCCCCCCCCCCCCC(=O)O)C(=O)O)NC(=O)[C@@H](NC(=O)[C@H](CC(=O)O)NC(=O)[C@H](CC(C)C)NC(=O)[C@](C)(Cc1ccccc1)NC(=O)[C@H](CCCCN)NC(=O)[C@H](CO)NC(=O)[C@@H](NC(=O)[C@H](CC(=O)O)NC(=O)[C@H](CO)NC(=O)[C@@H](NC(=O)[C@H](Cc1ccccc1)NC(=O)[C@@H](NC(=O)CNC(=O)[C@H](CCC(N)=O)NC(=O)C(C)(C)NC(=O)[C@@H](N)Cc1c[nH]cn1)[C@@H](C)O)[C@@H](C)O)C(C)C)[C@@H](C)O)C(C)C)C(=O)N[C@@H](CC(C)C)C(=O)NC(C)(C)C(=O)N[C@@H](CCC(=O)O)C(=O)O` [Peptide 197] (H-H[Aib]QGTFTSDVSK[αMeF]LDTK([AEEA-AEEA-γGlu-C18 diacid])RARDFVRWLL[Aib]E-OH; N-terminus assumed): the EC50 was 0.112 nM in assay [1] and 0.064 nM in assay [2]. Moreover, the “% Relative Potency Ratio” value in assay [2] was determined as 3.5.
